Patent publication US7375222B2, “2,4,6-Triamino-1,3,5-triazine derivative” (Astellas Pharma Inc., priority 2002, dated 2008)
Counter-ions that a name gives are not always drawn.

Experiments:
BEC 1 potassium channel = target: T1, BEC 1 potassium channel (Homo sapiens, UniProt Q9ULD8); assay: BEC 1 inhibitory activity using released amount of 86Rb ions from BEC 1-expressing cells; type: cell-based; details: 86Rb ion release, BEC 1-stably expressing CHO (dhfr-deficient) cell, 100 mM KCl stimulation; read-out: BEC1 IC50
T1 construct: expressed in transfected cells
T1 sequence (Q9ULD8 1-1083): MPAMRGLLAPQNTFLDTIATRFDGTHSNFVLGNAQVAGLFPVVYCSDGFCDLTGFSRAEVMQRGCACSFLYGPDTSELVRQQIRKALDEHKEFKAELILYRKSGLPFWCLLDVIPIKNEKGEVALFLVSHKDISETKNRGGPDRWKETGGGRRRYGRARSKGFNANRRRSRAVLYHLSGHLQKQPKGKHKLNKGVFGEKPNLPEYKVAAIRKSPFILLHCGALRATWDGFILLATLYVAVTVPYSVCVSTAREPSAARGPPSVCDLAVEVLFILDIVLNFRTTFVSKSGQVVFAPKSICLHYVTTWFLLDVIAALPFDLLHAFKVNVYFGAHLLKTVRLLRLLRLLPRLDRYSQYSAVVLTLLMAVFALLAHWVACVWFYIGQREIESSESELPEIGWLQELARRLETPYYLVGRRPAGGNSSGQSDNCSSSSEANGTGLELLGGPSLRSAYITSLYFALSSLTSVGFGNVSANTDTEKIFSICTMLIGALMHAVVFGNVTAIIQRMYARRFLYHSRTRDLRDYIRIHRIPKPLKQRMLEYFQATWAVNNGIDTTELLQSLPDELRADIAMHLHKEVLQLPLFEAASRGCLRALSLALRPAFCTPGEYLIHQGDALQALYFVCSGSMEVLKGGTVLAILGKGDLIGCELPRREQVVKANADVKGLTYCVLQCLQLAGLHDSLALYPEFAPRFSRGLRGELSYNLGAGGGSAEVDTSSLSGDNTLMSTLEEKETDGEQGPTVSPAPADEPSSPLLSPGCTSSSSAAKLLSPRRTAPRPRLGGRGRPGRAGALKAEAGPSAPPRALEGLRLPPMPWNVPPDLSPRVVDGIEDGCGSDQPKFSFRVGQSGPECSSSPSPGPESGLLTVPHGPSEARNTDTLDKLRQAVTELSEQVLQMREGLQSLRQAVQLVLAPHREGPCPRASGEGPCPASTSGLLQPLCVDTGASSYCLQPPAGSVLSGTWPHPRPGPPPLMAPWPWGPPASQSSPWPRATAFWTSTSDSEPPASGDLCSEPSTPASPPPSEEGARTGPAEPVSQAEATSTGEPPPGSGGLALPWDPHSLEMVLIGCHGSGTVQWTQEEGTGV
Procedure: In general, the potassium channel can pass Rb^+ ion similar to K^+ ion, so that the channel activity can be measured using release of a radioisotope ^86Rb^+ as a marker. By incubating cells expressing the novel potassium channel protein together with ^86RbCl (e.g., 18 hr, 37° C.), ^86Rb^+ can be incorporated into the cells. The cells are washed with a low K^+ concentration physiological saline (e.g., 4.5 mM K^+) and then suspended in the same solution. When a high K^+ concentration solution (e.g., 100 mM in final concentration) is added to the cell suspension, membrane potential of the cell is depolarized and the potassium channel therefore is activated. As a result, the intracellular ^86Rb^+ is released into the extracellular part, thus radioactivity of the extracellular solution can be used as a marker of the channel activity. It is possible to screen a compound and a peptide capable of modifying activity of the BEC 1 potassium channel protein, by comparing the radioactivity released into the extracellular part when the high K^+ concentration solution is added in the presence and absence of each drug to be tested.
Method for Measuring BEC 1 Inhibitory Activity of Compounds Using Released Amount of ^86Rb ions as the Index
The channel activity of BEC 1 was measured in accordance with the method described in WO 99/37677, using amount of a radioisotope ^86Rb ion released from a BEC 1-expressing cell as the index. That is, when an ^86Rb ion-incorporated BEC 1-expressing cell was stimulated with 100 mM KCl, the radioactivity released from the cell was used as the channel activity of BEC 1. The ^86Rb ions were incorporated into a BEC 1-stably expressing cell by culturing the cell (3 hours, 37° C.) in the presence of ^86RbCl (0.5 μCi/ml), and the un-incorporated ^86Rb ions were removed by washing three times with HEPES-buffered saline (pH 7.4, 2.5 mM KCl). The cells were incubated with HEPES-buffered saline containing a compound to be tested at room temperature for 15 minutes and then further incubated with 100 mM KCl-containing HEPES-buffered saline (pH 7.4) containing the compound to be tested at room temperature for 5 minutes. The extracellular medium was recovered, and then the remaining cells were lysed with 0.1 N NaOH and recovered.
The Cerenkov radioactivity of the extracellular medium and cell lysate was respectively measured, and their total was used as the total radioactivity. The released amount of ^86Rb ions was expressed by the percentage of extracellular medium radioactivity based on the total radioactivity. The value obtained in the presence of the compound was used as a test value, and the value obtained in the absence of the compound as a control value and the value obtained when not stimulated with 100 mM KCl as a blank value. Inhibitory action of each compound was expressed by % inhibition, namely (control value−test value)×100/(control value−blank value), or by an IC50 value calculated from the % inhibition. As the test results of typical compounds are shown in the following Tables 2 and 3, it was confirmed that said compounds have the BEC 1 potassium channel inhibitory action.
In this connection, as the BEC 1-expressing cell, a BEC 1-stably expressing cell prepared in accordance with the method described in WO 99/37677 using a dihydrofolate reductase (dhfr)-deficient strain of a Chinese hamster ovary cell was used.

SMILES | IC50 (BEC 1 potassium channel) | melting point
CC(C)Nc1nc(Nc2ccccc2)nc(Nc2ccc(C(F)(F)F)cc2)n1 (as salt: HCl) [Ex 49] | – | 198 to 200 °C
CCCCCNc1nc(Nc2ccccc2)nc(Nc2ccccc2)n1 [compound 14] | 390 nM | 78 to 81 °C
OCCCCCNc1nc(Nc2ccccc2)nc(Nc2ccccc2)n1 [compound 22] | 190 nM | 118 to 119 °C
COCCCNc1nc(Nc2ccccc2)nc(Nc2ccccc2)n1 (as salt: HCl) [compound 18] | – | 154 to 155 °C
Fc1ccc(Nc2nc(NCc3ccnc(F)c3)nc(Nc3ccccc3)n2)cc1 (as salt: HCl) [Example 744] | – | 175 to 177 °C
Cc1ccc(Nc2nc(Nc3ccccc3)nc(NC(C)C)n2)cc1 (as salt: HCl) [Ex 47] | – | 194 to 195 °C
Fc1ccc(Nc2nc(NCc3ccnc(F)c3)nc(Nc3ccc(Cl)cc3)n2)cc1 (as salt: HCl) [Example 797] | – | 214 to 215 °C
CC(C)Nc1nc(Nc2ccccc2)nc(Nc2ccc(Cl)cc2)n1 (as salt: HCl) [Ex 46] | – | 201 to 203 °C
C#CCNc1nc(Nc2ccccc2)nc(Nc2ccccc2)n1 (as salt: HCl) [compound 16] | – | 195 to 197 °C
COc1cccc(Nc2nc(Nc3cccc(OC)c3)nc(NC(C)C)n2)c1 (as salt: HCl) [compound 40] | – | 180 to 182 °C
CCN(CC)CCCC(C)Nc1nc(Nc2ccccc2)nc(Nc2ccc(F)cc2)n1 (stereo not shown) (hydrate or solvate) [Example 794] | – | 184 to 187 °C
COCCNc1nc(Nc2ccccc2)nc(Nc2ccccc2)n1 [compound 17] | 290 nM | 128 to 129 °C
COc1ccc(Nc2nc(Nc3ccccc3)nc(NC(C)C)n2)cc1 (as salt: HCl) (hydrate or solvate) [Ex 48] | – | 174 to 177 °C
O=C1OCCC1CNc1nc(Nc2ccccc2)nc(Nc2ccccc2)n1 (stereo not shown) (as salt: HCl) (hydrate or solvate) [compound 24] | – | 138 to 140 °C
Fc1ccc(Nc2nc(NCc3ccnc(F)c3)nc(Nc3ccc(F)cc3)n2)cc1 (as salt: HCl) [Example 743] | – | 191 to 192 °C

Second part, the compound after the results:

IC50 (BEC 1 potassium channel) | melting point | SMILES
220 nM | 205 to 206 °C | CC(C)Nc1nc(Nc2ccccc2)nc(Nc2ccc(F)cc2)n1.Cl [compound 45, N-(4-fluorophenyl)-N′-isopropyl-N″-phenyl-1,3,5-triazine-2,4,6-triamine hydrochloride]
– | 179 to 180 °C | Fc1ccc(Nc2nc(NCc3ccco3)nc(Nc3ccc(F)cc3)n2)cc1 (as salt: HCl) [compound 30]
– | 179 to 181 °C | COCCNc1nc(Nc2ccccc2)nc(Nc2ccc(F)cc2)n1 (as salt: HCl) [Example 771]
– | 151 to 152 °C | OCCOCCNc1nc(Nc2ccc(F)cc2)nc(Nc2ccc(F)cc2)n1 (as salt: HCl) [compound 38]
– | 188 to 189 °C | OCCCNc1nc(Nc2ccccc2)nc(Nc2ccc(F)cc2)n1 (hydrate or solvate) [Example 774]
– | 141 to 142 °C | OCCOCCNc1nc(Nc2ccccc2)nc(Nc2ccc(F)cc2)n1 (as salt: HCl) [Example 777]
– | 164 to 199 °C | Nc1cc(CNc2nc(Nc3ccccc3)nc(Nc3ccc(F)cc3)n2)ccn1 (as salt: salt) (hydrate or solvate) [Example 747]
– | 175 to 176 °C | COCCNc1nc(Nc2ccc(F)cc2)nc(Nc2ccc(F)cc2)n1 (as salt: HCl) [compound 35]
– | 178 to 180 °C | OCCCCCNc1nc(Nc2ccccc2)nc(Nc2ccc(F)cc2)n1 (as salt: HCl) [Example 776]
– | 193 to 195 °C | C[C@H](CO)Nc1nc(Nc2ccccc2)nc(Nc2ccc(F)cc2)n1 (as salt: HCl) [Example 779]
– | 140 to 141 °C | CONc1nc(Nc2ccccc2)nc(Nc2ccc(F)cc2)n1 (as salt: HCl) (hydrate or solvate) [Example 789]
– | 166 to 167 °C | Fc1ccc(CNc2nc(Nc3ccc(F)cc3)nc(Nc3ccc(F)cc3)n2)cc1 (as salt: HCl) [compound 29]
– | 154 to 156 °C | CN(C)Nc1nc(Nc2ccccc2)nc(Nc2ccc(F)cc2)n1 (as salt: HCl) [Example 791]
– | 162 to 163 °C | OCCCCCNc1nc(Nc2ccc(F)cc2)nc(Nc2ccc(F)cc2)n1 (as salt: HCl) [compound 37]
– | 164 to 165 °C | Nc1cccc(CNc2nc(Nc3ccccc3)nc(Nc3ccc(F)cc3)n2)n1 (hydrate or solvate) [Example 819]
– | 176 to 178 °C | Fc1ccc(Nc2nc(NCc3ccccc3)nc(Nc3ccc(F)cc3)n2)cc1 (as salt: HCl) (hydrate or solvate) [compound 28]
– | 144 to 148 °C | Fc1ccc(Nc2nc(NCc3ccco3)nc(Nc3ccccc3)n2)cc1 (hydrate or solvate) [Example 764]
– | 141 to 143 °C | CCONc1nc(Nc2ccccc2)nc(Nc2ccc(F)cc2)n1 (as salt: HCl) (hydrate or solvate) [Example 790]
– | 185 to 186 °C | OCCCCNc1nc(Nc2ccccc2)nc(Nc2ccc(F)cc2)n1 (as salt: HCl) [Example 775]
– | 180 to 182 °C | Fc1ccc(Nc2nc(NCc3cccs3)nc(Nc3ccc(F)cc3)n2)cc1 (as salt: HCl) [compound 31]
– | 209 to 211 °C | OCCNc1nc(Nc2ccccc2)nc(Nc2ccc(F)cc2)n1 (as salt: HCl) [Example 773]
